Assay results as given in article PMC6737244, “Cathelicidin Peptides Restrict Bacterial Growth via Membrane Perturbation and Induction of Reactive Oxygen Species” (mBio, 2019).
Ends that are not written are not given here.

Key:
[1] = system: Enterobacter cloacae OC4080; type: cell-based
Experimental: (§1) MICs were determined by using the broth microdilution method based on the general recommendations of the Clinical and Laboratory Standards Institute (CLSI). Bacteria were grown in CAMHB overnight. They were then diluted into fresh medium the following morning and grown to early log phase. The cultures were then diluted to approximately 5 × 10^5 CFU ml^−1, and 100 μl was added to sterile 96-well polypropylene microtiter plates (Corning, NY, USA) preloaded with twofold dilutions of antimicrobial peptides. […] All MIC assays were determined from at least three independent assays.

[2] = system: Enterobacter cloacae OC4092; type: cell-based
Experimental: as §1

[3] = system: Escherichia coli ATCC 25922; type: cell-based
Experimental: as §1

[4] = system: Escherichia coli ATCC 35218; type: cell-based
Experimental: as §1

Escherichia coli MC4100a = type: cell-based
Experimental: as §1

Escherichia coli OC4075 = type: cell-based
Experimental: as §1

Escherichia coli UTI89 = type: cell-based
Experimental: as §1

[5] = system: Klebsiella pneumoniae 262 (NDM1+); type: cell-based
Experimental: as §1

[6] = system: Klebsiella pneumoniae 88 (NDM1+); type: cell-based
Experimental: as §1

[7] = system: Klebsiella pneumoniae ATCC 700603; type: cell-based
Experimental: as §1

Klebsiella pneumoniae C2 = type: cell-based
Experimental: as §1

[8] = system: Klebsiella pneumoniae OC4110; type: cell-based
Experimental: as §1

[9] = system: Klebsiella pneumoniae OC8893; type: cell-based
Experimental: as §1

[10] = system: Pseudomonas aeruginosa ATCC 27853; type: cell-based
Experimental: as §1

[11] = system: Pseudomonas aeruginosa OC4083; type: cell-based
Experimental: as §1

[12] = system: Pseudomonas aeruginosa PAO1; type: cell-based
Experimental: as §1

Gram-positive bacteria = details: cited from earlier work
Source text: The human cathelicidin LL-37 has important roles in modulating inflammatory responses. […] Perhaps because they are released in response to bacterial infection and tissue injuries, LL-37 and other cathelicidins can promote wound healing and reduce fibrosis ([8][–][10]). All of these desirable activities have generated significant interest in developing cathelicidins to treat bacterial infection and injuries, however, c ...

## GRFKRFRKKLKKLFKKLSPVIPLLHLG [BMAP-27B, reference compound]
[1]
  MIC: 4 µM
[2]
  MIC: 4 µM
[3]
  MIC: 4 µM
[4]
  MIC: 4 µM
Escherichia coli MC4100a
  MIC: 4 µM
Escherichia coli OC4075
  MIC: 4 µM
Escherichia coli UTI89
  MIC: 4 µM
[5]
  MIC: 4 µM
[6]
  MIC: 4 µM
[7]
  MIC: 4 µM
Klebsiella pneumoniae C2
  MIC: 4 µM
[8]
  MIC: 8 µM
[9]
  MIC: 8 µM
[10]
  MIC: 4 µM
[11]
  MIC: 4 µM
[12]
  MIC: 4 µM
Gram-positive bacteria
  Fold-higher concentration needed to reach the MICs for Gram-positive bacteria: ca. 10 fold
